For one test, the target named is T1, human MR (Homo sapiens, UniProt P08235).
T1 construct: The full length human MR gene is cloned from a human kidney or human brain cDNA library; His tag from the pAcHLT vector (own knowledge); made in house; host or cells: Sf9 insect cells (baculovirus, pAcHLT transfer vector)
T1 sequence (P08235 1-984): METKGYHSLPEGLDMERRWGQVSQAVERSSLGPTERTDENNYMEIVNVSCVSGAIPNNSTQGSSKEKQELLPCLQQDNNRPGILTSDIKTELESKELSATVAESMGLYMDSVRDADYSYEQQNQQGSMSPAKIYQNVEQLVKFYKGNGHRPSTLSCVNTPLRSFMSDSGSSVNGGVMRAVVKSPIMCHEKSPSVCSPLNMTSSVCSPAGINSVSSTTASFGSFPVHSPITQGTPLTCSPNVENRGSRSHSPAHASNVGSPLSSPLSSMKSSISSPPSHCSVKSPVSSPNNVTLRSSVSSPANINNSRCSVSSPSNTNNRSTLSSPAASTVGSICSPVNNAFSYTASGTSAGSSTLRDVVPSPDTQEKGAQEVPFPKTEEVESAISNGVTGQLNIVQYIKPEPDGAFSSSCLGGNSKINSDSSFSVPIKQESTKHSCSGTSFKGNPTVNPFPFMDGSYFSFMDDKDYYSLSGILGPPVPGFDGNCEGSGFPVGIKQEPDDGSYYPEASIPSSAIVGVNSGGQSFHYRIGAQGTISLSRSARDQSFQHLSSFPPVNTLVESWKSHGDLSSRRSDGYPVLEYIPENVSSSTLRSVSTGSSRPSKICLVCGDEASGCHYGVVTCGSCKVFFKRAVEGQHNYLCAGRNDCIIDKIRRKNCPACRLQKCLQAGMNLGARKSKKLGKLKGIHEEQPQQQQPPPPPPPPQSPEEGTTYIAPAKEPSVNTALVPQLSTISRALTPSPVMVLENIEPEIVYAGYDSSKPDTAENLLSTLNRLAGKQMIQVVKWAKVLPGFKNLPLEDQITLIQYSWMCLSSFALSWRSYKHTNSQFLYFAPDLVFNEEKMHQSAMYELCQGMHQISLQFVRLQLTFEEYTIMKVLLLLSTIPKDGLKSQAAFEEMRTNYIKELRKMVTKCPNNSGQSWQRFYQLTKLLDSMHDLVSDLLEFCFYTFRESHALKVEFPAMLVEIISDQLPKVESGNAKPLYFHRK
The experiment in a line: Mineralocorticoid Receptor Binding Assay ([3H]-aldosterone). The method in brief:
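Lysate supernatant of Sf9 cells expressing full-length human MR (20-25 μg protein) was incubated with 0.5 nM [3H]-aldosterone and test compound in molybdate/Tris/phosphate/glycerol buffer, pH 7.5, ~16 h at 4 °C. Bound ligand was filtered and counted by scintillation; IC50 is the concentration halving [3H]-aldosterone binding.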

The next test addresses T2, glucocorticoid receptor (Homo sapiens, UniProt P04150).
T2 construct: containing 50-200 ug of A549 cell extract and 1.86 nM [^3H]-dexamethasone; host or cells: A549 human lung epithelial cells (sonicated cell extract)
T2 sequence (P04150 1-777): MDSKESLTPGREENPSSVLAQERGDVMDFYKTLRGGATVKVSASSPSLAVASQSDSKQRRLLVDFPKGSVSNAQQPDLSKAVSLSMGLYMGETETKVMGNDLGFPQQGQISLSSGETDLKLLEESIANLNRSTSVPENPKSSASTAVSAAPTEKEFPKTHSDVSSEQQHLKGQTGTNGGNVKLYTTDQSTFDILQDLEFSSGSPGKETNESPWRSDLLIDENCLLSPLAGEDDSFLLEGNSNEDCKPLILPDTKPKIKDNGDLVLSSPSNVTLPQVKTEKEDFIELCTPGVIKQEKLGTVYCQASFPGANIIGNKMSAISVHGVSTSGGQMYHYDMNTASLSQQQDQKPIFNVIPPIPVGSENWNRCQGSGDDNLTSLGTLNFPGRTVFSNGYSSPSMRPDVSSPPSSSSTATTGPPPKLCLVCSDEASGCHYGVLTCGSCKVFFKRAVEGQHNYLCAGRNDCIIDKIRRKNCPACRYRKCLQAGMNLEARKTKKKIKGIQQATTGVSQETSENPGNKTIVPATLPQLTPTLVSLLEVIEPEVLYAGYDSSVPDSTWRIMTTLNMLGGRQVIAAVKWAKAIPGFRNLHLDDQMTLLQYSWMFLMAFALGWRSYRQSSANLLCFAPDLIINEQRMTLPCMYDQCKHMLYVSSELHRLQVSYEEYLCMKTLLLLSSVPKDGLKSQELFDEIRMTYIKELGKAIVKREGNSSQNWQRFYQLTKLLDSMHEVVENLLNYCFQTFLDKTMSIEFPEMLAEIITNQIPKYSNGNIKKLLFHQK
Put plainly: Glucocorticoid Receptor Binding Assay ([3H]-dexamethasone, A549 cell extract). The conditions noted are these: [3H]-dexamethasone binding, read-out: GR Ki. An outline of the steps:
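A549 cell extract (50–200 ug) incubated with 1.86 nM [3H]-dexamethasone and test compound for 16 h at 4 °C in Tris-HCl pH 7.2 buffer with glycerol and molybdate. Unbound radioligand removed by dextran-coated charcoal, then supernatant bound counts measured by scintillation.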

Setting [1] is: [3H]-aldosterone binding, human MR expressed in Sf9 cells, read-out: MR Ki.

Read-outs that look alike come from different tables or passages of the source.

Usually Ki stands for the equilibrium dissociation constant of an inhibitor or competing ligand from its target. For the compound `C/C(=C1\c2ccccc2COc2ccccc21)c1cccc(NS(C)(=O)=O)c1` [Example 795], the Ki on human MR (setting [1]) and on glucocorticoid receptor was less than 500 nM each time.
For the compound `COc1ccc2c(c1)CCc1ccccc1C2=Cc1ccc(O)cc1` (mixture of isomers) [Example 168, 4-(2-Methoxy-10,11-dihydro-dibenzo[a,d]cyclohepten-5-ylidenemethyl)-phenol], the inhibition constant (Ki) on human MR was less than 500 nM; at glucocorticoid receptor, less than 1000 nM.
On to `C(=C1c2ccccc2CCc2ccccc21)c1ccccc1-c1cnccn1` [Example 225, 2-[2-(10,11-Dihydro-dibenzo[a,d]cyclohepten-5-ylidenemethyl)-phenyl]-pyrazine], for which the Ki was less than 500 nM on human MR (setting [1]) and less than 10000 nM on glucocorticoid receptor.
With `Cc1cccc2c1OCc1ccccc1/C2=C\c1cccc(NS(C)(=O)=O)c1` [Example 674], the Ki at human MR (setting [1]) and on glucocorticoid receptor was less than 500 nM each time.
In the case of `Cn1c(=O)[nH]c2cc(C=C3c4ccc(F)cc4CCc4cc(F)ccc43)ccc21` [Example 459], the results for the Ki on human MR (setting [1]) and at glucocorticoid receptor were less than 500 nM and less than 1000 nM, respectively.
On the same counts, the results for `COc1ccc2c(c1)CCc1cc(OC)ccc1C2=Cc1cccc(O)c1` [Example 193, 3-(2,8-Dimethoxy-10,11-dihydro-dibenzo[a,d]cyclohepten-5-ylidenemethyl)-phenol] are less than 500 nM and less than 500 nM.
Turning to `O=c1[nH]c2ccc(C=C3c4ccccc4CCc4cc(F)cc(F)c43)cc2[nH]1` [Example 463], the Ki on human MR (setting [1]) was less than 500 nM; on glucocorticoid receptor, less than 10000 nM.
In the case of `CS(=O)(=O)Nc1cccc(/C=C2/c3cccnc3CCc3cccc(F)c32)c1` [Example 557], the Ki at human MR (setting [1]) and on glucocorticoid receptor was less than 500 nM in each case.
For `Cc1ccc2c(c1)SCc1ccccc1/C2=C\c1cccc(NS(C)(=O)=O)c1` [Example 749], the Ki at human MR (setting [1]) and at glucocorticoid receptor was less than 500 nM in each case.
Take `NC(=O)c1ccc(C=C2c3ccccc3CCc3ccccc32)cc1` [Example 85, 4-(10,11-Dihydro-dibenzo[a,d]cyclohepten-5-ylidenemethyl)-benzamide]: the Ki at human MR (setting [1]) and at glucocorticoid receptor was less than 500 nM in each case.
With `CCC(=C1c2ccc(C)cc2CCc2cc(F)ccc21)c1cccc(NS(C)(=O)=O)c1` [Example 833], the Ki at human MR (setting [1]) and at glucocorticoid receptor was less than 500 nM throughout.
Turning to `CS(=O)(=O)NCc1cccc(C=C2c3ccccc3CCc3ccccc32)c1` [Example 145, N-[3-(10,11-Dihydro-dibenzo[a,d]cyclohepten-5-ylidenemethyl)-benzyl]-methanesulfonamide], the Ki on human MR (setting [1]) and on glucocorticoid receptor was less than 500 nM throughout.
Turning to `NC(=O)c1cccc(C=C2c3ccccc3CCc3ccccc32)c1` [Example 84, 3-(10,11-Dihydro-dibenzo[a,d]cyclohepten-5-ylidenemethyl)-benzamide], the Ki is less than 500 nM at human MR (setting [1]) and less than 10000 nM at glucocorticoid receptor.
Taken in the same sequence, the figures for `Cc1ccc2c(c1)CSc1ccccc1/C2=C\c1cccc(NS(C)(=O)=O)c1` [Example 743] were less than 500 nM and less than 500 nM.
As for `CC(=C1c2ccc(C)cc2CCc2cc(C)ccc21)c1cccc(NS(C)(=O)=O)c1` [Example 771], the Ki on human MR (setting [1]) and at glucocorticoid receptor was less than 500 nM each time.
On to `CN1C(=O)c2ccccc2C(=Cc2cccc(N)c2)c2ccccc21` [Example 651], for which the Ki at human MR (setting [1]) was less than 500 nM; on glucocorticoid receptor it was less than 1000 nM.
Taken in the same sequence, the figures for `O=c1[nH]c2ccc(/C=C3\c4ccc(F)cc4CCc4ncsc43)cc2[nH]1` [Example 565] were less than 500 nM and less than 10000 nM.
On the same counts, the results for `Oc1cccc(C=C2c3ccc(Cl)cc3CCc3cc(Cl)ccc32)c1` [Example 183, 3-(2,8-Dichloro-10,11-dihydro-dibenzo[a,d]cyclohepten-5-ylidenemethyl)-phenol] are less than 500 nM and less than 500 nM.
Take `Cc1cccc2c1CCc1ccccc1C2=Cc1ccc(NS(C)(=O)=O)cc1` [Example 307]: the Ki is less than 500 nM at human MR (setting [1]) and less than 1000 nM on glucocorticoid receptor.
Taken in the same sequence, the figures for `CS(=O)(=O)Nc1cccc(/C=C2\c3ccc(F)cc3CCc3ncsc32)c1` [Example 564] were less than 500 nM and less than 500 nM.
On the same counts, the results for `Cc1cccc2c1CCc1ccccc1/C2=C/c1cccc(NS(C)(=O)=O)c1` [Example 311] are less than 500 nM and less than 500 nM.
As to `COc1ccc2c(c1)COc1ccccc1/C2=C(\C)c1cccc(NS(C)(=O)=O)c1` [Example 818], the Ki at human MR (setting [1]) and at glucocorticoid receptor was less than 500 nM each time.
`Oc1cccc(/C=C2\c3ccccc3CCc3cccc(Cl)c32)c1` [Example 370]: the inhibition constant (Ki) at human MR (setting [1]) was less than 500 nM; on glucocorticoid receptor it was less than 1000 nM.
On the same counts, the results for `O=c1[nH]c2ccc(/C=C3/c4ccccc4CCc4cc(C(F)(F)F)ccc43)cc2[nH]1` [Example 473] are less than 500 nM and less than 10000 nM.
With `Cc1ccc2c(c1)C(=Cc1ccc(NS(C)(=O)=O)cc1)c1ccccc1CC2` [Example 305], the Ki was less than 500 nM on human MR (setting [1]) and less than 1000 nM on glucocorticoid receptor.
As to `C/C(=C1\c2ccc(F)cc2CCc2ncccc21)c1cc(F)cc(NS(C)(=O)=O)c1` [Example 837], the Ki on human MR (setting [1]) and on glucocorticoid receptor was less than 500 nM in each case.
In the case of `O=C(CO)Nc1cccc(C=C2c3ccccc3CCc3cc(Cl)ccc32)c1` [Example 300], the Ki is less than 500 nM at human MR (setting [1]) and less than 1000 nM at glucocorticoid receptor.
With `O=c1[nH]c2cc(/C=C3\c4ccccc4COc4cc(F)ccc43)ccc2n1C1CC1` [Example 609, 1-cyclopropyl-5-(3-fluoro-6H-dibenzo[b,e]oxepin-11-ylidenemethyl)-1,3-dihydro-benzoimidazol-2-one], the inhibition constant Ki on human MR (setting [1]) is less than 500 nM; at glucocorticoid receptor it was less than 1000 nM.
Taken in the same sequence, the figures for `C/C(=C1\c2ccc(Cl)cc2COc2ccccc21)c1cccc(NS(C)(=O)=O)c1` [Example 798] were less than 500 nM and less than 500 nM.
`CS(=O)(=O)Nc1cccc(/C=C2/c3ccc(Cl)cc3CCc3ncccc32)c1` [Example 569]: the Ki on human MR (setting [1]) is less than 500 nM; at glucocorticoid receptor it was less than 10000 nM.
For `CS(=O)(=O)Nc1cccc(CC2c3ccccc3CCc3c(F)cccc32)c1` (centres unmarked) [Example 187, N-[3-(1-Fluoro-10,11-dihydro-5H-dibenzo[a,d]cyclohepten-5-ylmethyl)-phenyl]-methanesulfonamide], the Ki at human MR (setting [1]) and at glucocorticoid receptor was less than 500 nM each time.
For `CS(=O)(=O)Nc1cccc(/C=C2/c3ccccc3COc3ccc(Cl)cc32)c1` [Example 680], the Ki is less than 500 nM on human MR (setting [1]) and less than 1000 nM on glucocorticoid receptor.
On the same counts, the results for `CS(=O)(=O)Nc1cccc(/C=C2\c3ccccc3CCc3ccncc32)c1` [Example 515] are less than 500 nM and less than 10000 nM.
On the same counts, the results for `CS(=O)(=O)Nc1cccc(/C=C2\c3ccccc3CCc3ccc(O)cc32)c1` [Example 352] are less than 500 nM and less than 500 nM.

Values taken from US20060063759A1, “Tricyclic steroid hormone nuclear receptor modulators” (priority 2002, published 2006).
